Patent US10400010B2, “Structure-based peptide inhibitors of P53 aggregation as a new approach to cancer therapeutics” (THE REGENTS OF THE UNIVERSITY OF CALIFORNIA, priority 2013, dated 2019)
“Also recorded” adds a separate entry of the source.

Assays:
[1] = test system: cancer cells bearing misfolded/aggregation-prone mutant p53; assay: Cell viability, standard MTS assay, 2D culture; assay type: cell-based; conditions: 24 hours
Protocol: (§1) B. and C. show one representative case of primary cells from ovarian cancer.
INH-1R caused cell death in a dose dependent manner with less than 50% of cancer cells surviving after only 24 hours of treatment with a dose of 10 μM in a 2D culture system as detected by a standard MTS assay (FIG. 7A). […] In this case cells were plated in 1:1 mixture of PrEGM:matrigel. After cell layer solidified, cells were overlaid with warm PrEGM media containing either the inhibitor or a scrambled control peptide at concentration ranging from 0.1 to 10 μM for 5 to 7 days.

[2] = Serum concentration by MRM mass spectrometry (pharmacokinetic profile); assay type: in vivo, Nude mice
Protocol: Nude mice were injected in the flank with OVCAR-3 cells and the resulting xenografts were allowed to grow for two weeks. The mice were then treated for three days via IP with 15 mg/kg of INH-1R CPP peptide or scrambled control peptide. They were divided in groups of two and sacrificed at 1, 2, 4, 8, 12 and 24 hours post final peptide injection. Two naïve mice were sacrificed before treatment to obtain a reference value. Peak serum concentration of INH-1R CPP (as well as control peptide) was detected at 1 hour post injection. Average of two mice are shown.
The peptide concentration decreased to approximately 0.3 μM 2 hours post infusion, and remained stable for up to 12 hours (FIG. 10). Given the relative stability of the peptide in serum, IV administration is an acceptable alternative route of administration.

[3] = molecular target: T1, p53 aggregation (segment p53252-258, LTIITLE) (Homo sapiens, UniProt P04637); assay: In vitro Thioflavin T aggregation assay; assay type: biochemical; conditions: different concentrations, down to molar ratio 1 inhibitor to 10 p53 molecules
T1 construct: made in house; host or cells: chemical synthesis
From the text: The aggregation of p53 is monitored via Thioflavin T assay: an increase in Thioflavin T fluorescence is detected over time due to the formation of increasing amounts of amyloid to which the dye can specifically bind. […] The sequence of this segment, LTIITLE, is SEQ ID NO: 21.
One representative in vitro assay is the thioflavin T assay shown in FIG. 3 (Naiki, H., Higuchi, K., Hosokawa, M., and Takeda, T. (1989) Fluorometric determination of amyloid fibrils in vitro using the fluorescent dye, thioflavine T. Anal. Biochem., 177, 244-249). The assay can be performed using a target sequence peptide, such as LTIITLE (SEQ ID NO: 21), or it can be performed using full-length p53 (such as recombinant p53). In both cases, the peptide (e.g. LTIITLE) (SEQ ID NO: 21) or the p53 is placed in solution with thioflavin T and increasing concentrations of inhibitor. The assay is performed in a multiwall plate (e.g. a 384 well plate). This dye is amyloid specific and is only fluorescent when bound to amyloid aggregates. The fluorescence is measured over time, e.g. with a plate reader. Inhibition is detected as a delay in the onset of aggregation and/or less total amount of aggregates formed.
The designed inhibitors were synthesized and tested in an in vitro Thioflavin T aggregation assay (FIG. 3).

[4] = test system: cancer cell lines (OVCAR-3, CAOV-3, WiDr, Detroit 562) and primary cells from ovarian cancer patients; assay: Cell entry and co-localization of FITC labeled inhibitor by fluorescence microscopy; assay type: cell-based, human; conditions: 24 hours
From the text: INH-1R CPP was covalently linked to a FITC fluorescent label and added to different cancer cell lines or primary cells directly obtained from ovarian cancer patients (as depicted here). […] The cell nuclei are stained with Hoechst 33342 (blue), while p53 is recognized by an anti-p53 antibody and stained in red. […] Protein aggregates are stained with the commercially available OC antibody (in red).
To render the inhibitors cell permeable, the inventors fused the peptide-inhibitor panel to a nine-residue poly arginine tag through a three-residue linker, of sequence RPI, derived from endogenous p53 sequence. To confirm their ability to enter cells, the cell penetrating INH-1R inhibitor was linked to a FITC moiety in order to detect the intracellular localization of the probe by fluorescence microscopy (FIG. 4). We treated different cancer cell lines, including but not limited to OVCAR-3, CAOV-3, WiDr, Detroit 562 as well as primary cells derived from cancer patients with the FITC labeled inhibitor for 24 hours. After extensive washes to remove unbound inhibitors, the cells were fixed in formaldehyde and p53 was stained using a commercially available p53 antibody. […] Additionally, the inhibitor was found co-localized with protein aggregates as stained by the conformation specific antibody OC (Kayed et al, 2007, FIG. 4B).

MCF-7 (WT p53) = assay: p53 re-localization in WT p53 control cells; assay type: cell-based; conditions: WT p53 bearing cells MCF 7
From the text: The structure-guided, rationally designed p53 amyloid inhibitors of the invention specifically target those cancer cells bearing p53 molecules having an aberrant conformation (e.g. aggregated or misfolded p53). […] We then tested the inhibitor on established cancer cell lines as well as on primary cells derived from serous ovarian cancer patients in order to confirm the clinical relevance of our findings. Our inhibitor is designed to specifically target those tumor cells expressing an altered misfolded form of p53 and should have no effect on cells bearing functional, properly folded p53 or aggregation-incompetent p53 mutants. To confirm this, we included several controls. Three established cell lines, one bearing WT p53 (MCF-7) and two which were previously characterized for their p53 aggregation status, one with a non-aggregating mutation (WiDr) and one with a p53 aggregation prone mutation (Detroit 562), were used as negative and positive controls. One of the effects of the inhibitor was to cause re-localization of p53 from the cytosolic compartment to the nucleus (FIG. 5).

[5] = test system: stable cell line derived from an ovarian cancer tumor (PA40 cells); assay: p53 re-localization and refolding, DO-1 and PAb240 antibody stain; assay type: cell-based
From the text: A stable cell line derived from an ovarian cancer tumor is stained with the commercially available DO-1 antibody which recognizes any p53, irrespective of its structural state. […] The PAb240 commercial antibody recognizes misfolded p53, therefore loss of PAb240 antigeneicity reflects a change in the p53 population from misfolded to properly folded, functionally capable protein.
(§2) Properly folded p53 is rapidly degraded in cells as a control mechanism. Misfolded/aggregated p53 cannot be efficiently targeted for degradation therefore protein levels are high in the absence of the inhibitor. This is additional evidence of the ability of the INH-1R to generate a population of folded p53.

OVCAR-3 cell lysates = assay: p53 levels in cell lysates by Western Blot; assay type: cell-based; conditions: 0, 1, 5 or 10 μM, 24 hours
From the text: The properly folded p53 (see FIG. 6) can now be degraded as is WT p53. The hyperstability due to misfolding/aggregation is lost, and the protein turnover is fast.
as §2

[6] = test system: primary cells from ovarian cancer; assay: Apoptosis (AnnexinV stain) and proliferation (Ki67 stain); assay type: cell-based; conditions: increasing dosage
From the text: as §1

OVCAR-3 cells [7] = assay: Apoptosis and necrosis, combined Hoechst/PI/YO-PRO-1 stain; assay type: cell-based; conditions: 24 hours
Protocol: OVCAR-3 cells were treated for 24 hours with the indicated concentrations of either INH-1R CPP or a scrambled inhibitor sequence. Hoechst (blue) stains all nuclei while YO-PRO-1 (green) only stains apoptotic cells and propidium iodide (red) stains late apoptotic/necrotic cells.

OVCAR-3 cells [8] = assay: Cell death by FACS (cell size and granularity); assay type: cell-based; conditions: 10 μM, 24 hours
Protocol: Cells treated for 24 hours with either INH-1R or a control peptide were trypsinized and analyzed by FACS.

[9] = test system: p53 target genes p21 and Mdm2; assay: Up-regulation of p53 target genes by QPCR or RNAseq; assay type: cell-based; conditions: tumor cells with p53 misfolding/aggregating mutations
From the text: Specificity and efficacy of INH-1R CPP was confirmed by up-regulation of p53 target genes only in tumor cells containing p53 misfolding/aggregating mutations.

[10] = test system: OVCAR-3 cells bearing the aggregation prone p53 R248Q mutation (xenograft); assay: OVCAR-3 xenograft tumor proliferation in vivo; parameters: species or system NOD/SCID mice
Protocol: A. Images of the xenografts from mice (n=3 for each group, one mouse had 2 xenografts) treated with INH-1R CPP, a scrambled peptide control, or vehicle for 14 days. […] C. Tumor volume was estimated daily.
In our in vivo studies, we attempted to mimic a post-surgical debulking situation in which patients with minimal residual tumor mass are administered chemotherapy. NOD/SCID mice were injected subcutaneously with OVCAR-3 cells bearing the aggregation prone p53 R248Q mutation and treated intraperitoneally with 15 mg/kg of either INH-1R as a single therapeutic agent, a control scrambled peptide, or vehicle daily for 14 days (FIG. 9).

Question: What does the source list for `CC[C@H](C)[C@H](NC(=O)[C@H](CCCNC(=N)N)NC(=O)[C@@H](NC(=O)[C@H](CC(C)C)NC(=O)[C@@H](NC(=O)[C@@H]1CCCN1C(=O)[C@H](CCCNC(=N)N)NC(=O)[C@H](CCCNC(=N)N)NC(=O)[C@H](CCCNC(=N)N)NC(=O)[C@H](CCCNC(=N)N)NC(=O)[C@H](CCCNC(=N)N)NC(=O)[C@H](CCCNC(=N)N)NC(=O)[C@H](CCCNC(=N)N)NC(=O)[C@H](CCCNC(=N)N)NC(=O)[C@H](CCCNC(=N)N)NC(=O)[C@@H](N)CCCNC(=N)N)[C@@H](C)CC)[C@@H](C)O)C(=O)N[C@H](C(=O)N[C@@H](CC(C)C)C(=O)N[C@@H](CCC(=O)O)C(=O)O)[C@@H](C)O` [INH-1R CPP, RRRRRRRRRRPILTRITLE]?
Answer: Cancer cells surviving (cell viability, MTS) ([1]; 10 μM, 2D culture): Dose dependent reduction of cell viability; Time serum concentration remained stable ([2]; 15 mg/kg IP): up to 12 hours; Tmax ([2]; nude, mouse, serum, 15 mg/kg IP for three days, read-out: Time of peak serum concentration post injection): 1 h; Cmax ([2]; nude, mouse, serum, 15 mg/kg IP, 1 hour after injection, read-out: Serum peak concentration): ~1200 nM; level at time molar at 2 h ([2]; nude, mouse, serum, 15 mg/kg IP, 2 hours, read-out: Serum concentration 2 hours post infusion): ~300 nM

Question: What does the source list for `CC[C@H](C)[C@H](NC(=O)[C@H](CCCNC(=N)N)NC(=O)[C@@H](NC(=O)[C@H](CC(C)C)NC(=O)[C@@H](NC(=O)[C@@H]1CCCN1C(=O)[C@H](CCCNC(=N)N)NC(=O)[C@H](CCCNC(=N)N)NC(=O)[C@H](CCCNC(=N)N)NC(=O)[C@H](CCCNC(=N)N)NC(=O)[C@H](CCCNC(=N)N)NC(=O)[C@H](CCCNC(=N)N)NC(=O)[C@H](CCCNC(=N)N)NC(=O)[C@H](CCCNC(=N)N)NC(=O)[C@H](CCCNC(=N)N)NC(=O)[C@@H](N)CCCNC(=N)N)[C@@H](C)CC)[C@@H](C)O)C(=O)N[C@H](C(=O)N[C@@H](CC(C)C)C(=O)N[C@@H](CCC(=O)O)C(=O)O)[C@@H](C)O` [INH-1R]?
Answer: Inhibition of p53 aggregation (Thioflavin T fluorescence over time) [3]: delay the aggregation onset and lower the total amount of aggregates present, in a concentration dependent fashion; also recorded: delayed the onset of aggregation and lowered the amount of aggregates present at all concentrations tested; Ability to enter cells (intracellular localization) [4]: able to penetrate the cell membrane, but also to actually enter the nucleus and co-localize with its target, p53; Re-localization of p53 from cytosol to nucleus (MCF-7 (WT p53)): not observed; Recognition of p53 by PAb240 (misfolded p53) [5]: failed to be recognized by the antibody PAb240; Total amount of p53 (OVCAR-3 cell lysates): decreasing in a dose dependent manner; Cancer cells surviving (cell viability, MTS) ([1]; 10 µM): less than 50%; Apoptosis (AnnexinV stain) [6]: increase in apoptosis; Cell proliferation (Ki67 stain) [6]: decrease in cell proliferation; Apoptosis and necrosis (Hoechst/PI/YO-PRO-1 stain) (OVCAR-3 cells [7]): Apoptosis as well as necrosis were induced specifically; Cell size and granularity (FACS) (OVCAR-3 cells [8]): a decrease in cell size and increase in granularity; Up-regulation of p53 target genes [9]: up-regulation of p53 target genes only in tumor cells bearing aggregation-prone mutations; p53 target genes MDM2 and p21 in residual tumor tissue ([10]; 15 mg/kg IP daily for 14 days): pronounced p21 and MDM2 activation; Xenograft mass reduction in weight ([10]; 15 mg/kg intraperitoneally daily for 14 days): 75%
